Measurements from publication PMC4669411 (FEBS Open Bio, 2015).

What was measured:
PputG6PDH-1 [1] = biological target: T1, PputG6PDH-1 (Pseudomonas putida, UniProt Q88P31); assay: progress curves at […] nm, product inhibition, global fit; type: biochemical
T1 sequence (Q88P31 1-489): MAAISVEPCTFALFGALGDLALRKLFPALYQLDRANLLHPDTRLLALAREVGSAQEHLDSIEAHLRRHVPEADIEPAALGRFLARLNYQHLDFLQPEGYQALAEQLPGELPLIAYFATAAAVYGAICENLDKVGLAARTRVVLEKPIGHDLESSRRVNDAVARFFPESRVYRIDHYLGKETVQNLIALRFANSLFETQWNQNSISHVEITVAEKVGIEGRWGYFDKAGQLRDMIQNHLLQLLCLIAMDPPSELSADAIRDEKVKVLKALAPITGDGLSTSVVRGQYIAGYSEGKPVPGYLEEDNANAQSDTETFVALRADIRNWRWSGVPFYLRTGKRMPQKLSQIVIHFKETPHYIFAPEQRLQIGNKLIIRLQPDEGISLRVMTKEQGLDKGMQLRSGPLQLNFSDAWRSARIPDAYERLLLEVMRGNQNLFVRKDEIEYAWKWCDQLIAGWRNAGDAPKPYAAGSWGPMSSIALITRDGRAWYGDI

PputG6PDH-1 [2] = biological target: T1, PputG6PDH-1; assay: initial rates, NAD; type: biochemical

| Ki (PputG6PDH-1 [1]) [µM] | Ki (PputG6PDH-1 [2]) [µM] | Structure (SMILES) |
| --- | --- | --- |
| 480 ± 7 | – | NC(=O)C1=CN([C@@H]2O[C@H](COP(=O)(O)OP(=O)(O)OC[C@H]3O[C@@H](n4cnc5c(N)ncnc54)[C@H](O)[C@@H]3O)[C@@H](O)[C@H]2O)C=CC1 [NADH] |
| – | 18 ± 3 | NC(=O)C1=CN([C@@H]2O[C@H](COP(=O)(O)OP(=O)(O)OC[C@H]3O[C@@H](n4cnc5c(N)ncnc54)[C@H](OP(=O)(O)O)[C@@H]3O)[C@@H](O)[C@H]2O)C=CC1 [NADPH] |
